Marks after values point to notes of the source that are not given here.
Experiments:
Format in all cases: in vivo, human
endothelial function = test: Reflection index (RI), salbutamol challenge test with digital volume plethysmography, type 2 diabetics; details: for RI: DM, 400 mcg; for Absolute change of RI / Reflection index (%) Post Tt / Reflection index (%) Pre Tt: type 2 diabetics (Example 3), chromium products 400 mcg; for Absolute change of RI: 12 week treatment; for Reflection index (%) Post Tt: post-treatment, 12 weeks; for Reflection index (%) Pre Tt: pre-treatment
Protocol: (§1) The present clinical study is a prospective, randomized, double blind, placebo-controlled study. Patients of either sex, aged 30-65 years, fasting plasma glucose of 110-126 mg/dl, a glycosylated hemoglobin (HbA1c) between 6.5% and 8% and taking stable dose of anti-diabetic treatment (metformin 1500-2000 mg/day) for the past 8 weeks prior to the screening visit; and having endothelial dysfunction defined as ≤6% change in reflection index (RI) on post salbutamol challenge test were included in the study. Patients with severe uncontrolled hyperglyceamia, uncontrolled hypertension, cardiac arrhythmia, impaired hepatic or renal function, history of malignancy or stroke, smoking, chronic alcoholism, any other serious disease requiring active treatment and treatment with any other herbal supplements, were excluded from the study.
(§2) After screening, all the eligible subjects were randomized to receive either one of the three treatments orally for duration of 12 weeks—Group1—one capsule of Crominex®3+, 200 mcg once daily, Group 2—one capsule Crominex®3+, 400 mcg once daily; Group 3—one capsule of placebo once daily.
(§3) Subjects were required for follow up at 4, 8 and 12 weeks of therapy. At each visit they were evaluated for efficacy and safety. Pharmacodynamic evaluation for endothelial function was conducted at every visit. Blood samples were collected for evaluation of biomarkers before and at the end of treatment. Safety lab investigations for hematological, hepatic and renal biochemical parameters were conducted before and at the end of the study and also as and when required (in case of any adverse drug reaction (ADR). Subjects were enquired for the presence of ADR and the same was recorded in the case report form. Compliance to therapy was assessed by pill count method.
Procedure for Assessment of Endothelial Function by Determination of Reflection Index (RI).
A salbutamol (albuterol) challenge test employing digital volume plethysmography was used to assess endothelial function as reported by Chowienczyk et al., “Photoplethysmographic assessment of pulse wave reflection: blunted response to endothelium dependant beta 2-adrenergic vasodilation in type 2 diabetes mellitus,” J. Am. Coll. Cardiol. (1999 December) 34(7):2007-14; and Naidu, et al., “Comparison of two β2 adrenoceptor agonists by different routes of administration to assess human endothelial function,” Indian J. Pharmacol. (2007) 39:168-9. The patients were examined in supine position after 5 minutes of rest. A digital volume pulse (DVP) was obtained using a photo plethysmograph (Pulse Trace PCA2, PT200, Micro Medical, Gallingham, Kent, UK) transmitting infrared light at 940 nm, placed on the index finger of the right hand. The signal from the plethysmograph was digitized using a 12 bit analogue to digital converter with a sampling frequency of 100 Hz. DVP waveforms were recorded over 20 second period and the height of the late systolic/early diastolic portion of the DVP was expressed as a percentage of the amplitude of the DVP to yield the reflection index (RI), per the procedure described in detail by Millasseau et al., “Determination of age related increases in large artery stiffness by digital pulse contour analysis,” Clinical Science (2002) 103: 371-377. Three DVP recordings were taken, and measurements of reflection index (RI) were calculated and the mean value was determined. Patients were then administered 400 μg of salbutamol by inhalation. After 15 minutes three measurements of RI were obtained again and the difference in mean RI before and after administration of salbutamol was used for assessing endothelial function. A change of ≤6% in RI post-salbutamol was considered as endothelial dysfunction.
The primary efficacy measure was a change in endothelial dysfunction as assessed by more than 6% change in reflection index at 12 weeks. […]

nitric oxide (NO) = test: Nitric oxide level, spectrophotometric, type 2 diabetics; details: for NO: DM, 400 mcg; for Mean percentage change in NO / NO Post Tt / NO Pre Tt: type 2 diabetics (Example 3), chromium products 400 mcg; for Mean percentage change in NO: 12 week treatment; for NO Post Tt: post-treatment, 12 weeks; for NO Pre Tt: pre-treatment
Protocol: as §1, §2, §3
(§4) Nitric oxide, MDA, Glutathione and levels were estimated spectrophotometrically as follows. Malondialdehyde (MDA) levels were determined as described in Vidyasagar, et al., “Oxidative stress and antioxidant status in acute organophosphorous insecticide poisoning,” Indian J. Pharmacol. (April 2004) 36(2): 76-79. Glutathione levels were determined as described in G. L. Ellman, Arch. Biochem. Biophys. (1959) 82: 70-77 (original determination). Nitric oxide levels were estimated spectrophotometrically as described in Miranda, et al., “A Rapid, Simple Spectrophotometric Method for Simultaneous Detection of Nitrate and Nitrite,” NITRIC OXIDE: Biology and Chemistry (2001) Vol. 5, No. 1, pp. 62-71. hsCRP (high sensitivity C-reactive protein) was determined by ELISA method.
(§5) When the results with Crominex® 3+ in the above two examples were highly significant, especially with the 400 mcg once daily dose in type 2 diabetics, two more clinical studies (EXAMPLES 3 & 4) were conducted at the same institute, following the same methodology as described earlier, on the individual components of Crominex® 3+, i.e., chromium chloride and Phyllanthus emblica+Shilajit, and other chromium supplements available in the market, i.e., chromium picolinate, chromium polynicotinate and chromium dinicocysteinate, in type 2 diabetics as well as in subjects with metabolic syndrome symptoms.

glutathione (GSH) = test: Glutathione level, spectrophotometric, type 2 diabetics; details: for GSH: DM, 400 mcg; for Mean percentage change in GSH / GSH Post Tt / GSH Pre Tt: type 2 diabetics (Example 3), chromium products 400 mcg; for Mean percentage change in GSH: 12 week treatment; for GSH Post Tt: post-treatment, 12 weeks; for GSH Pre Tt: pre-treatment
Protocol: as §1, §2, §3, §4, §5

malondialdehyde (MDA) = test: Malondialdehyde level, spectrophotometric, type 2 diabetics; details: for MDA: DM, 400 mcg; for Mean percentage change in MDA / MDA Post Tt / MDA Pre Tt: type 2 diabetics (Example 3), chromium products 400 mcg; for Mean percentage change in MDA: 12 week treatment; for MDA Post Tt: post-treatment, 12 weeks; for MDA Pre Tt: pre-treatment
Protocol: as §1, §2, §3, §4, §5

[1] = system: Glycosylated Hemoglobin A1c (HbA1c); test: Glycosylated hemoglobin A1c, type 2 diabetics; details: for HbA1c (Abs.): DM, 400 mcg, absolute change; for Absolute change in HbA1c / HbA1c Post Tt / HbA1c Pre Tt: type 2 diabetics (Example 3), chromium products 400 mcg; for Absolute change in HbA1c: after 12 weeks treatment; for HbA1c Post Tt: post-treatment, 12 weeks; for HbA1c Pre Tt: pre-treatment
Protocol: as §1, §2, §3
All the subjects had undergone complete physical examination, safety lab evaluations at baseline and at the end of the treatment. Samples were collected after an overnight fast of 12 hrs after the last dose of medication for determination of hemoglobin, glycosylated hemoglobin (HbA1c), blood urea, serum creatinine, liver function, lipid profile (Total cholesterol, High density lipoprotein cholesterol (HDL-C), low density lipoprotein cholesterol (LDL-C) using appropriate standard techniques.
as §5

Compound	RI (endothelial function)	Absolute change of RI (endothelial function)	Reflection index (%) Post Tt (endothelial function)	Reflection index (%) Pre Tt (endothelial function)	NO (nitric oxide (NO))	Mean percentage change in NO (nitric oxide (NO))	NO Post Tt (nitric oxide (NO))	NO Pre Tt (nitric oxide (NO))	GSH (glutathione (GSH))	Mean percentage change in GSH (glutathione (GSH))	GSH Post Tt (glutathione (GSH))	GSH Pre Tt (glutathione (GSH))	MDA (malondialdehyde (MDA))	Mean percentage change in MDA (malondialdehyde (MDA))	MDA Post Tt (malondialdehyde (MDA))	MDA Pre Tt (malondialdehyde (MDA))	HbA1c (Abs.) [1]	Absolute change in HbA1c [1]	HbA1c Post Tt [1]	HbA1c Pre Tt [1]
O.O.O.O.O.O.[Cl][Cr]([Cl])[Cl] [Chromium chloride, Chromium chloride (CrCl3.6H2O)]	−0.57%	−0.57 + 0.36 #NS %	−3.22 ± 0.85 %	−3.79 ± 0.82^ %	6.98%	6.98 ± 10.15@NS %	29.60 ± 2.65 μM/L	27.74 ± 2.01 μM/L	4.22%	4.22 ± 0.64 #$NS %	527.08 ± 16.98 μM/L	505.73 ± 16.66 μM/L	−5.14%	−5.14 ± 1.92 #NS %	3.73 ± 0.39 nmol/mL	3.93 ± 0.39 nmol/mL	−0.02	−0.02 ± 0.10 #NS %	6.89 ± 0.16 NS %	6.91 ± 0.16%
chromium dinicocysteinate	−1.03%	−1.03 + 0.34 #NS %	−3.82 ± 0.74 %	−4.85 ± 0.74^ %	7.08%	7.08 ± 2.40@NS %	30.91 ± 2.87 μM/L	28.88 ± 2.72 μM/L	5.77%	5.77 ± 1.47 #$NS %	563.66 ± 11.04 μM/L	532.95 ± 10.63 μM/L	−6.62%	−6.62 ± 1.20@NS %	3.72 ± 0.30 nmol/mL	3.98 ± 0.31 nmol/mL	−0.01	−0.01 ± 0.07 #NS %	7.10 ± 0.08 NS %	7.11 ± 0.08%
chromium polynicotinate	−1.04%	−1.04 + 0.39 #NS %	−3.71 ± 1.1 $ %	−4.3 ± 1.2%	5.33%	5.33 ± 2.25 #@NS %	31.86 ± 2.55 μM/L	30.26 ± 2.48 μM/L	5.3%	5.30 ± 1.04 #@NS %	534.54 ± 32.56 μM/L	507.72 ± 31.73 μM/L	−5.56%	−5.56 ± 1.34 #NS %	3.75 ± 0.24 nmol/mL	3.97 ± 0.23 nmol/mL	−0.01	0.01 ± 0.10 #NS %	7.09 ± 0.13 NS %	7.08 ± 0.08%
chromium picolinate	−2.2%	−2.22 + 0.89 # %	−2.46 ± 0.90 %	−4.68 ± 1.24^ %	11.1%	11.09 ± 4.73@NS %	32.96 ± 2.54 μM/L	29.75 ± 2.92 μM/L	7.2%	7.20 ± 0.82 #@NS %	535.96 ± 31.89 μM/L	499.99 ± 30.23 μM/L	−6.03%	−6.03 ± 1.65 #NS %	3.78 ± 0.34 nmol/mL	4.02 ± 0.33 nmol/mL	−0.02	−0.02 ± 0.08 #NS %	7.03 ± 0.15 NS %	7.05 ± 0.11%

— patent US10183047B2, “Chromium-containing compositions in combination with Phyllanthus emblica and shilajit having synergistic effects for improving endothelial function and cardiovascular health” (Natreon, Inc., priority 2014, dated 2019)
